The term melting point denotes the temperature of the solid-liquid transition.

Consider `CNC(=O)c1cc2[nH]c(C)nc2c2c1CCC1(Cc3ccccc3C1)N2`, for which the melting point is 240 to 241 °C.

`Cn1c(=O)sc2ccc(C(c3ccc(C#N)cc3)n3cncn3)cc21` (stereo not given) showed a melting point of 122 to 125 °C.

Consider `Cc1nc(-c2cc([N+](=O)[O-])ccc2F)cs1`, for which the melting point lay within 160 to 162 °C.

In turn, `O=C1CCCc2cc(O)ccc21` displayed a melting point of 153 to 155 °C.

`Cc1ccc(N2C(=S)SCC2(C)O)nc1` (stereo not given) showed a melting point of 108 °C.

The molecule `COc1ccc(-c2cc(CCC(=O)O)sc2-c2ccc(OC)cc2)cc1` returned a melting point of 96 °C.

Take `CCCN1CCC(C(=O)Nc2ccc(CN(C)C3CCOCC3)cc2)=Cc2cc(-c3ccc(N4CCOCC4)cc3)ccc21`: the melting point was in the range of 114 to 118 °C.

`CCC(CC)C(NS(=O)(=O)c1ccc(Cl)s1)c1ncnn1Cc1ccc(C)cc1` (stereo not given) returned a melting point of 103 to 104 °C.

`CCOC(=O)c1cn(-c2cc(NC(=O)OC(C)(C)C)c(F)cc2F)c2c(C)c(F)c(F)c([N+](=O)[O-])c2c1=O` yielded a melting point of 188 to 189 °C.

Molecule `CCOC(=O)N[C@@H]1CCc2ccccc2[C@H]1Cl` (relative stereo) displayed a melting point of 124 to 126 °C.

Take `CCN1CC2CCCC2C1CNC(=O)c1cc(Cl)c(N)cc1OC` (stereo not given): the melting point is 128 to 129 °C.

Molecule `N#Cc1cnc2cc(Br)sc2c1Nc1ccc(Oc2ccccc2)cc1` yielded a melting point of 248 to 250 °C.

`C#CCNC(=O)c1ccc(C(=O)OC)cc1` yielded a melting point of 152 to 153 °C.

Take `O=[N+]([O-])CCc1cccc2ccccc12`: the melting point fell in the range of 45 to 46 °C.

In turn, `Cc1cc(C)c2ncc([N+](=O)[O-])c(-c3ccccc3Cl)c2c1` displayed a melting point of 130 to 131 °C.

In turn, `CC(C)(C)OC(=O)[C@H](Cc1ccc(O)cc1)NC(=O)c1c(F)cccc1F` registered a melting point of 145 to 148 °C.

Take `CC(C)(CNc1ccc(C2=NNC(=O)CC2)cc1)NCC(O)COc1cc(Cl)ccc1C#N` (stereo not given): the melting point was in the range of 160 to 162 °C.

For `CCOC(=O)CC(=O)Cc1ccc(OC)c([N+](=O)[O-])c1`, the melting point fell in the range of 87 to 88 °C.

The molecule `O=[N+]([O-])c1cnc2ccc(S)cc2c1-c1ccccc1` showed a melting point of 160 to 163 °C.

For `CCOC(=O)c1c(OCC)nsc1NC(=O)Oc1ccccc1`, the melting point was found to be 130 °C.

Turning to `Fc1ccc(/C=C/C2=CCN(Cc3c[nH]c4ncccc34)CC2)cc1F`, the melting point lay within 208 to 210 °C.

In turn, `CC(C)Oc1nc(O)ns1` showed a melting point of 74 °C.

In turn, `CCOC(=O)C(NC(=O)c1ccccc1Cl)(c1nc(OC)cc(OC)n1)C(C)C` (stereo not given) had a melting point of 94 to 95 °C.

In turn, `CC(C)NCC(O)COc1cccc2c1CC1OC1C2` (stereo not given) returned a melting point of 106 to 110 °C.

Turning to `Cc1cccc(Nc2cc(Cl)nc(SCC(=O)NC(C)CO)n2)c1C` (stereo not given), the melting point fell in the range of 170 to 172 °C.

`CC(C(=O)O)c1cccc(C(=O)c2cc3cc(C(=O)O)sc3s2)c1` (stereo not given) had a melting point of 244 °C.

Take `NC(=NO)c1ccc(-c2ccc(O)cc2)o1`: the melting point is 157 to 158 °C.

`O=C1N=NC(=O)c2c1[nH]c1cc(Br)ccc21` registered a melting point of 260 °C.

In turn, `O=C(O)c1cc(Cl)ccc1S` gave a melting point of 192 to 194 °C.

`CCCc1ccc(-n2nc(Cl)cc2-c2ccc(S(C)(=O)=O)cc2)cc1Cl`: the melting point lay in the range of 119 to 122 °C.

As for `O=C(N1CCN(c2nc(N3CC=CC3)nc(N3CC=CC3)n2)CC1)n1ccnc1`, the melting point fell in the range of 160 to 162 °C.

Take `COc1ccc(-c2nc(NC(C)=O)sc2-c2ccnc(NC(C)=O)c2)cc1`: the melting point lay in the range of 262 to 264 °C.

As to `Cn1c(CNCC2CCOC2)cc2cc(NC(=O)c3ccc(OCC4CCOC4)cc3)ccc21` (stereo not given), the melting point lay in the range of 131 to 133 °C.

In turn, `COc1cccc(CC2NC(=O)NC2=O)c1OCc1ccccc1` (racemic) showed a melting point of 202 to 204 °C.

Take `Cc1nc2c(N)nc3ccccc3c2n1OCCOc1ccccc1`: the melting point lay in the range of 237 to 239 °C.

Consider `C=C(C)C(=O)OC1=CC(O)(C(C)=O)C(C(=O)O)C=C1` (stereo not given), for which the melting point is 153 °C.

Regarding `Cc1cc(C(C)(CC(=O)O)c2ccc(O)c(C)c2)ccc1O`, the melting point stood at 130 °C.

`COc1cc(F)ccc1-c1ccc(S(=O)(=O)N2c3ccccc3CC2C(=O)NCCOc2ccc(C(=O)O)c(F)c2)cc1` (stereo not given) returned a melting point of 88 to 95 °C.

`CCOC(CNC(=S)Nc1c(F)ccc2nc(C)ccc12)OCC`: the melting point was 189 to 191 °C.

With `O=C1N(Cc2ccc(OCc3ccccc3)cc2)c2ccccc2C12COc1cc3c(cc12)CCO3` (stereo not given), the melting point was 169 to 170 °C.

For `O=C(c1ccc2c(c1)OCCO2)c1ccc2noc(-c3cccc(Cl)c3)c2c1`, the melting point is 195 °C.

`CC(C)(C)OC(=O)NCCCC(c1cc(F)ccc1F)S(=O)(=O)c1ccc(Cl)cc1` (stereo not given) registered a melting point of 119 to 120 °C.

In turn, `O=C(O)c1cc(-c2ccc3c(c2)CCO3)nn(Cc2ccc(Cl)cc2)c1=O` had a melting point of 200 to 210 °C.

Take `COc1ccc(C2CCc3cc(C)ccc3C2=O)cc1` (stereo not given): the melting point is 80 to 82 °C.

On to `CCOC(=O)c1cnc2c(SC(=O)N3CCN(Cc4ccc5c(c4)OCO5)CC3)cccn2c1=O`, for which the melting point lay in the range of 159 to 161 °C.

The molecule `O=C(O)Cc1ccc(C2CCCC(=O)C2)cc1` (stereo not given) showed a melting point of 96 °C.

As to `CCNc1ccc(S(=O)(=O)Nc2onc(C)c2C)cc1`, the melting point came to 123 °C.

On to `CSCC(=O)[C@H](CC(C)C)NC(=O)[C@H](CC(C)C)NC(=O)OCc1ccccc1`, for which the melting point was 96 to 97 °C.

In the case of `Cc1c(C2=CCC(Cc3ccccc3)(N(C)C)CC2)[nH]c2ccc(OC(F)(F)F)cc12` (stereo not given), the melting point was 74 to 75 °C.

`CC(C)C[C@H](NC(=O)OCc1ccccc1)C(=O)N[C@@H](Cc1ccccc1)C(=O)CSCCN(C)C` registered a melting point of 67 to 69 °C.

In turn, `COc1ccc2c(c1)N(C)C(=O)C2(C)C` displayed a melting point of 67 to 69 °C.

As to `COC(=O)C12CC(C(=O)OC)(C1)C2`, the melting point came to 92 °C.

As to `O=C(NC(=O)c1ccc(F)c(OC(F)F)c1F)NC1CC1`, the melting point lay in the range of 128 to 130 °C.

In turn, `O=C(O)C1=Cc2cc(C(=O)c3ccc(Cl)cc3)ccc2OC1C(F)(F)F` (stereo not given) had a melting point of 268 to 269 °C.

`O=S1(=O)NN=Cc2ccsc21`: the melting point lay within 125 to 127 °C.

For the molecule `CCCn1nc(C)c(C(=O)O)c1Cc1ccc(-c2ccccc2-c2nnn[nH]2)cc1`, the melting point lay within 240 to 242 °C.

`O=C(NO)c1cccnc1Cl` yielded a melting point of 179 °C.

As to `Cc1cc2c(cc1-c1cc(C=C3SC(=O)NC3=O)ccc1OC(F)(F)F)N(C)C(=O)CC2(C)C`, the melting point lay in the range of 182 to 184 °C.

In turn, `COC(=O)c1cc2ccc(OC)cc2o1` returned a melting point of 97 to 98 °C.

In the case of `COc1ccc(C(=O)NCCCCOc2ccc(-n3ccnc3)cc2)cc1`, the melting point is 125 to 126 °C.

As to `CC(C)(C)CNc1nc(C#N)nc2ccc(OCc3cccnc3)cc12`, the melting point was 156 to 158 °C.

Consider `CCOC(=O)C(Cc1ccc(NCc2ccc3cc(OS(C)(=O)=O)ccc3c2)cc1)OC` (stereo not given), for which the melting point fell in the range of 94 to 96 °C.

`CC(C)c1nn(-c2ccc(C(F)(F)F)cn2)cc1CO` displayed a melting point of 119 to 120 °C.

With `CC(C)c1cccc(C(C)C)c1-n1nn[nH]c1=O`, the melting point fell in the range of 177 to 178 °C.

For the molecule `Cc1ccc(C)c(-c2sc(NC(=O)[C@@H]3C[C@@H]4CC[C@H]3C4)c(C#N)c2Cl)c1`, the melting point lay within 117 to 119 °C.

For the molecule `O=C(O)c1ccc(-c2cc3ccccc3[nH]2)cc1`, the melting point amounted to 205 °C.

As to `CC(=O)Nc1ccc(C(=O)NCCN2[C@H](C)Cc3ccsc3[C@@H]2C)cc1` (relative stereo), the melting point lay in the range of 161 to 162 °C.

The molecule `COCOc1ccc(C=CC(C)=O)cc1OC` displayed a melting point of 73 to 75 °C.

The molecule `Clc1ccc([C@@]2(Cn3ccnc3)OC[C@H](COc3ccc4c(c3)CCN(CCCc3ccc(-c5ccccc5)cc3)C4)O2)c(Cl)c1` (racemic) displayed a melting point of 125 to 127 °C.

Regarding `COC(=O)c1ccc(OS(=O)(=O)C(F)(F)F)c(C23CC4CC(CC(C4)C2)C3)c1`, the melting point came out at 95 °C.

`CCCOc1ccc(OC)cc1-c1ncc(C(=O)OCC)c(=O)[nH]1` returned a melting point of 124 to 126 °C.

Take `CCCCCCCCCCCCc1cc(C=O)on1`: the melting point lay in the range of 53 to 54 °C.

For `Cc1ccc2c(Sc3cc(Cl)cc(Cl)c3)c(CCC(N)=O)[nH]c2c1`, the melting point was determined as 152 °C.

In turn, `CCOC(=O)C(=CNC(C)(C)C)C(=O)c1cc(F)c(F)c(F)c1F` showed a melting point of 112 °C.

On to `NCCc1cccc(N2C(=O)N(c3ccc(Cl)cc3Cl)Cc3cnc(Nc4ccccc4)nc32)c1`, for which the melting point lay within 131 to 135 °C.

The molecule `CN(c1cccc2cc(C3=NCC(C)(C#N)S3)[nH]c12)S(=O)(=O)c1cccs1` (stereo not given) showed a melting point of 178 to 179 °C.

In the case of `CCCCCN(CCCCC)C(=O)C(CCC(=O)O)CS(=O)(=O)c1ccc(C(C)=O)cc1` (stereo not given), the melting point lay in the range of 69 to 71 °C.

As for `CC(Cn1ccnc1)OCC(O)(P(=O)(O)O)P(=O)(O)O` (stereo not given), the melting point is 135 to 140 °C.

`Cc1cc(O)ccc1-n1cc(C(=O)O)c(=O)cc1C1=CCCC1`: the melting point is 211 to 213 °C.

`COCCCCCCCCCCCC(=O)NCc1ccccc1` displayed a melting point of 77.7 to 79.4 °C.

As to `O=C(N[C@H]1CC[C@H](CCN2CCC(c3cccc4c3CCO4)CC2)CC1)c1ccnc2ccccc12`, the melting point was 211 °C.

With `CCn1cc(-c2ccc(O)cc2)nc1SC`, the melting point turned out to be 218 °C.

In turn, `O=C(O)Cc1c(C(=O)c2ccc(Cl)c(F)c2)[nH]c2cc(Cl)ccc12` displayed a melting point of 179 to 182 °C.

Take `OC(CCNC1=NCCCN1)c1ccccc1` (stereo not given): the melting point lay in the range of 130 to 135 °C.

For `Oc1cc2[nH]c3cc(O)c(O)cc3c2cc1O`, the melting point is > 300 °C.

For the molecule `CC(C)N1Cc2cc(CO)ccc2N(CCN2CC=C(c3c[nH]c4cc(F)ccc34)CC2)S1(=O)=O`, the melting point lay within 113 to 115 °C.

For `COC(=O)c1ccc(O)c(OC2CCCC2)c1`, the melting point lay in the range of 73 to 75 °C.

`CCOC(=O)/C=C/c1cccc(C2CCCC2)c1OCCc1ccccc1` showed a melting point of 78 to 80 °C.

Regarding `Cc1cc(C(N)=O)ccc1O[C@@H]1CCNC[C@H]1O` (relative stereo), the melting point lay in the range of 210 to 212 °C.

In the case of `Cc1c(C(=O)CC(C)(C)C)c2ccccc2n1CCCNS(C)(=O)=O`, the melting point fell in the range of 139 to 142 °C.
